Among the data in patent US11497737B2, “Pharmaceutical compositions of albumin and rapamycin” (Abraxis BioScience, LLC, priority 2019, dated 2022) are solubility values, retold here.

≈ marks a conversion by molar mass, not a printed value.

Data set [1] can be described thus: Rapamycin solubility from light scattering intensity of diluted reconstituted nanoparticle suspension. It is filed as physicochemical. Conditions: saline or isotonic; in 0.9% saline solution; from light scattering intensity vs rapamycin concentration of reconstituted albumin-rapamycin nanoparticle suspension; read-out: solubility point of rapamycin. On the procedure:
FIG. 5 depicts light scattering intensity (kcps) as a function of rapamycin concentration from a reconstituted suspension of the pharmaceutical composition comprising nanoparticles comprising rapamycin and albumin. When the suspensions were diluted to concentrations below the rapamycin solubility, the nanoparticles completely disintegrated and dissolved (see left 7-8 data points on graph). However, when the suspensions were diluted to concentrations above the rapamycin solubility, the nanoparticles only partially disintegrated and dissolved, and light scattering was observed (see right 4-5 data points on graph).
The albumin-based rapamycin nanoparticle compositions described herein in some embodiments have a particular in vitro release kinetic behavior. […] In this assay, the particle size and intensity of light scattered by the particles are measured by DLS over time following a reduction in particle concentration. In some embodiments, the release kinetics are determined by diluting the pharmaceutical composition in a 0.9% saline solution. In some embodiments, the release kinetics are determined by diluting the pharmaceutical composition in a 5% human albumin solution.
In some embodiments, the in vitro release is determined using the dynamic light scattering method. […] In some embodiments, the intensity of light scattered is measured at a scattering angle of 173°.

Data set [2] can be described thus: Solubility of rapamycin in reconstituted suspension by light scattering. The format is physicochemical. Conditions: saline or isotonic; reconstituted suspension of the pharmaceutical composition in 0.9% saline; mean±95% CI. As for the experimental part:
The change in intensity of light scattering in diluted samples of the reconstituted suspension of the pharmaceutical composition was used as a measure to determine the in vitro dissolution or disintegration of the nanoparticles, which implicates the release of rapamycin from the nanoparticles of the pharmaceutical composition. The percent of rapamycin released at any given time was determined using the light scattering intensity at zero time and at time t. The intensity of light scattering, measured by the Malvern Zetasizer Nano, is relative to the number of nanoparticles present in the pharmaceutical composition. […] If the release of rapamycin from the nanoparticles is controlled by the solubility limit and the reconstituted suspension is diluted to a concentration within the solubility range, then the nanoparticles should rapidly dissolve, causing the rapamycin to be readily released from the nanoparticles of the pharmaceutical composition, and the light scattering intensity will approach zero.
When the suspensions were diluted to concentrations above the rapamycin solubility, the nanoparticles only partially disintegrated and dissolved, and light scattering was observed. […] The solubility of rapamycin was determined as the concentration at which the intensity of the scattered light begins to increase linearly.

For `CO[C@H]1C[C@@H]2CC[C@@H](C)[C@@](O)(O2)C(=O)C(=O)N2CCCC[C@H]2C(=O)O[C@H]([C@H](C)C[C@@H]2CC[C@@H](O)[C@H](OC)C2)CC(=O)[C@H](C)/C=C(\C)[C@@H](O)[C@@H](OC)C(=O)[C@H](C)C[C@H](C)/C=C/C=C/C=C/1C` [rapamycin], the solubility in data set [1] and in data set [2] was 16.1 ± 1.8 µg/mL (≈ 17.6 µM) throughout.
